Source: the NIST ThermoML archive (doi:10.1016/j.fluid.2011.12.007)
Numbers after ± are expanded uncertainties.

Legend:
[1] = xn = mol fraction of the nth substance listed; conditions: 303.15 K, Maximal bubble pressure
[2] = for mass density: 101.33 kPa, Liquid, Vibrating tube method; for surface tension liquid-gas: Maximal bubble pressure
[3] = refractive index (Na D-line) (dimensionless); conditions: 298.15 K; 101.33 kPa; Liquid; Standard Abbe refractometry
[4] = Boiling temperature at pressure P; conditions: 101.33 kPa; Liquid; Ebulliometric method (Recirculating still)

## CCCCCC [hexane] + C1CCOCC1
[1]; x1 = 1
  surface tension liquid-gas: 17.4 ± 0.25 mN/m

## CCCCCC [hexane]
[2]; 298.15 K
  mass density: 655.19 ± 0.17 kg/m3
[3]
  refractive index: 1.37374 ± 0.00031

## C1CCOCC1 [tetrahydropyran] + CCCCCC
[1]; x2 = 0
  surface tension liquid-gas: 27.1 ± 0.27 mN/m
[1]; x2 = 0.045
  surface tension liquid-gas: 26.47 ± 0.27 mN/m
[1]; x2 = 0.09
  surface tension liquid-gas: 25.64 ± 0.27 mN/m
[1]; x2 = 0.181
  surface tension liquid-gas: 24.39 ± 0.27 mN/m
[1]; x2 = 0.282
  surface tension liquid-gas: 23.17 ± 0.26 mN/m
[1]; x2 = 0.383
  surface tension liquid-gas: 22.03 ± 0.26 mN/m
[1]; x2 = 0.487
  surface tension liquid-gas: 21.13 ± 0.26 mN/m
[1]; x2 = 0.589
  surface tension liquid-gas: 20.39 ± 0.26 mN/m
[1]; x2 = 0.674
  surface tension liquid-gas: 19.47 ± 0.25 mN/m
[1]; x2 = 0.786
  surface tension liquid-gas: 18.77 ± 0.25 mN/m
[1]; x2 = 0.899
  surface tension liquid-gas: 18.12 ± 0.25 mN/m
[1]; x2 = 0.964
  surface tension liquid-gas: 17.46 ± 0.25 mN/m

## C1CCOCC1 [tetrahydropyran]
[2]; 283.15 K
  surface tension liquid-gas: 29.61 ± 0.28 mN/m
[2]; 288.15 K
  surface tension liquid-gas: 29.15 ± 0.28 mN/m
[2]; 293.15 K
  surface tension liquid-gas: 28.56 ± 0.28 mN/m
[2]; 298.15 K
  surface tension liquid-gas: 28 ± 0.28 mN/m
  mass density: 879.03 ± 0.09 kg/m3
[2]; 303.15 K
  surface tension liquid-gas: 27.14 ± 0.27 mN/m
[2]; 308.15 K
  surface tension liquid-gas: 26.5 ± 0.27 mN/m
[2]; 313.15 K
  surface tension liquid-gas: 25.55 ± 0.27 mN/m
[2]; 318.15 K
  surface tension liquid-gas: 25.25 ± 0.27 mN/m
[2]; 323.15 K
  surface tension liquid-gas: 24.23 ± 0.27 mN/m
[2]; 328.15 K
  surface tension liquid-gas: 23.6 ± 0.26 mN/m
[2]; 333.15 K
  surface tension liquid-gas: 22.75 ± 0.26 mN/m
[4]
  Boiling temperature at pressure P: 88.21 ± 0.04 °C
[3]
  refractive index: 1.42 ± 0.00031
